Results reported in publication PMC7435865, “Antinociceptive and Cytotoxic Activity of Opioid Peptides with Hydrazone and Hydrazide Moieties at the C-Terminus” (Molecules, 2020).
Where two headings read alike, the source gives them in different places. Where a SMILES comes first, the peptide text is derived from it. [ ]: non-standard residue; d: D form. The star is where a group is joined. X4 = O=C(NN*)c1cc(C(F)(F)F)cc(C(F)(F)F)c1; X3 = FC(F)(F)c1cc(C=NN*)cc(C(F)(F)F)c1

Assays:
MOR = details: cited from earlier work
µ opioid receptor (MOR) = target: T1, µ opioid receptor (MOR) (Rattus norvegicus, UniProt P33535); assay: competitive radioligand binding, [3H]DAMGO displacement in rat brain homogenate
T1 construct: from tissue; host or cells: rat brain (membrane fractions of homogenate)
T1 sequence (P33535 whole entry): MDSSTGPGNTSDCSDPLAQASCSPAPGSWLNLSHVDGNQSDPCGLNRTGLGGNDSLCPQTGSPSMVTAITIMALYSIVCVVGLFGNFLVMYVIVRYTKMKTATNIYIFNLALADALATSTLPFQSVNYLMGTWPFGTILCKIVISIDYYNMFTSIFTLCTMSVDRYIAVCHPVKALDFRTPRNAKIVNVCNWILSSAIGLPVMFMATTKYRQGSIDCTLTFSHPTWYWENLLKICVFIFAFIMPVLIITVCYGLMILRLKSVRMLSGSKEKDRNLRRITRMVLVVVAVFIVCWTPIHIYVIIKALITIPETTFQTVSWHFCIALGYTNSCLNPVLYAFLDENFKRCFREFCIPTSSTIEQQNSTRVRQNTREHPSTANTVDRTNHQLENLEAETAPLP
Description: (§1) The synthesized compounds were assayed for binding affinity to the μ- and δ-opioid (MOR and DOR, respectively), as well as to the neurokinin-1 receptors (NK1R). The determinations were performed in rat brain homogenates by competitive displacement of selective radioligands. The results are shown in Table 2 as the half-maximal inhibitory concentration (IC50) with the standard error of the mean (SEM).
(§2) The binding affinity of compounds 1b–6a for MOR, DOR, and NK1R was determined in competitive radioligand binding assays according to the method previously described. The specific radioligands were [^3H]DAMGO (DAMGO, [Tyr^1-3,5-^3H])), [^3H][Ile^5,6]DELT II ([Ile^5,6]Deltorphin II, [Tyr^l-3,5-^3H]) and [^3H]Substance P (Substance P, [Leu-3,4,5-^3H]), for experiments with MOR, DOR, and NK1R, respectively. The first two were obtained from Isotope Laboratory, Biological Research Centre, Institute of Biochemistry (Szeged, Hungary), whereas the latter was purchased from Perkin Elmer (Perkin Elmer Inc., Krakow, Poland). Membrane fractions of rat brain homogenate were incubated at 25 °C for 60 min in the presence of radioligands (0.5 nM) specific for each receptor and increasing concentrations of the tested compounds. To measure non-specific binding, 10 μM naloxone was used as the competitor for opioid receptors and 10 μM cold Substance P was used for NK1R. The reactions were carried out in assay buffer containing Tris-HCl (pH 7.4) with an addition of bovine serum albumin (BSA) and protease inhibitors (bacitracin, bestatin, captopril). After the incubation, the binding reactions were terminated by rapid filtration with M-24 Cell Harvester (Brandel/USA) through GF/B Whatman glass fiber strips (presoaked with 0.5% PEI in order to minimize non-specific binding). Radioactivity retained on the filters was measured in MicroBeta LS on a Trilux scintillation counter (PerkinElmer, Santa Clara, CA, USA). The experiments were repeated at least two times in duplicate. The IC50 value for each compound was determined using GraphPad Prism.

δ opioid receptor (DOR) = target: T2, δ opioid receptor (DOR) (Rattus norvegicus, UniProt P33533); assay: competitive radioligand binding, [3H][Ile5,6]Deltorphin II displacement in rat brain homogenate
T2 construct: from tissue; host or cells: rat brain (membrane fractions of homogenate)
T2 sequence (P33533 whole entry): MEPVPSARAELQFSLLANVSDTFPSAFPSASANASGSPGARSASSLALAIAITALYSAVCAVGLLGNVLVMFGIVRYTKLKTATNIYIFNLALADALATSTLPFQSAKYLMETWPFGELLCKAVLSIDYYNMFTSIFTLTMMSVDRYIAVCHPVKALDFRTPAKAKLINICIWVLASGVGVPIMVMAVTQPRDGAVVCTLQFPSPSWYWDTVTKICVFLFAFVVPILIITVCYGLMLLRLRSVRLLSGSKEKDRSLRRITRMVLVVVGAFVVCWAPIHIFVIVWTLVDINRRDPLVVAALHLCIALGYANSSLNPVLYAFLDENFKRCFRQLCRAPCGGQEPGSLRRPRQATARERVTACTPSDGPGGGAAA
Description: as §1, §2

[1] = target: T3, neurokinin-1 receptor (NK1R) (Rattus norvegicus, UniProt P14600); assay: competitive radioligand binding, [3H]Substance P displacement in rat brain homogenate
T3 construct: from tissue; host or cells: rat brain (membrane fractions of homogenate)
T3 sequence (P14600 whole entry): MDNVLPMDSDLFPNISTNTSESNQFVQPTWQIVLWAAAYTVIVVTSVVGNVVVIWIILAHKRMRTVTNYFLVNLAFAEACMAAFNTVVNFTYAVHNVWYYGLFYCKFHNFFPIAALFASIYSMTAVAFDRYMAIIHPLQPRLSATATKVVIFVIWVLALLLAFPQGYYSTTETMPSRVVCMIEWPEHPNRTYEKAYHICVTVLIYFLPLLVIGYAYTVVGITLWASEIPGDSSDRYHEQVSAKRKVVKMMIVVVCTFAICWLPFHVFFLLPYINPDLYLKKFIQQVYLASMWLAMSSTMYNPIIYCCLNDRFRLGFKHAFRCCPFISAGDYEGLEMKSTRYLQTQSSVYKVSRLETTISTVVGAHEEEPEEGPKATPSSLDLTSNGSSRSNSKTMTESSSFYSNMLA
Description: as §1, §2

[2] = test system: MeW155 human melanoma cells; assay: melanoma cell number in culture after incubation with compound; format: cell-based; details: 50 µM, 96 h incubation
Description: The determination was performed by counting the cells of the MeW155 cell line after incubating them with 50 µM of the tested compounds.
The cells were plated in 24-well plates (5000 cells per well) and incubated for 24 h in Eagle’s medium containing 10% fetal bovine serum and 1% solution of penicillin and streptomycin. […] Control cells were treated with 1% DMSO only. After 96 h of incubation, the cell suspension was first lysed in lysis buffer (ReagentA, ChemoMetec A/S) and then stabilized in stabilization buffer (ReagentB, ChemoMetec A/S). The number of […] was quantified in a propidium iodide cassette with the use of a NucleoCounter® NC-100™ (ChemoMetec A/S) cell counter. The tests were performed in triplicate. The results were normalized so that the values obtained for the control were 100%.

male Wistar rats = assay: tail flick test after intrathecal administration; format: in vivo, rat; details: for ED50 ± SEM: tail flick, i.t., n = 4–8
Description: Analgesic activity of compounds 1b–1d was measured in the tail flick test after intrathecal administration to rats, according to a procedure thoroughly described before. First, adult male Wistar rats weighing 200–250 g were prepared for intrathecal administration by the catherization method described previously by Yaksh and Rudy. Each experimental group consisted of 4–8 rats. Next, spinally mediated analgesia was assessed in the tail flick test utilizing the Plantar Test and Tail Flick Analgesia Meter apparatus (IITC Life Science Inc., Los Angeles, CA, USA). Withdrawal latency was measured in triplicate. The cut-off latencies were set at 7 s to avoid burns. The measurements were performed before the administration of the tested compound (time 0) and 5, 15, 30, 60, and 120 min after injection. The control group received injections of 0.9% NaCl. Data from in vivo studies are presented as means ± SEM and were analyzed using two-way repeated measures of ANOVA followed by Dunnett-corrected multiple comparisons. Significance was defined as * p < 0.033, ** p < 0.002, *** p < 0.001. Data were analyzed using GraphPad Prism. The responses were expressed as a percentage of a maximum possible effect (%MPE), calculated as ((T1 − T0)/(T2 − T0)) × 100, where T0 and T1 are latencies before and after drug injection, respectively, and T2 is the cut-off time. All experimental procedures were approved by The Local Committee for Ethics in Animal Experiments, permission no. 46/2013.

DOR = target: DOR; parameters: method as in PMID 17927164; details: cited from earlier work
[3] = 0.5 nmol/rat i.t., 15 min after injection

| Molecule | IC50 (µ opioid receptor (MOR)) | IC50 (δ opioid receptor (DOR)) | IC50 [1] | effect on number of melanoma cells (in words) [2] | further results |
| --- | --- | --- | --- | --- | --- |
| H-Tyr-Pro-Phe-NH2 | – | – | – | – | Ki (MOR; read-out: MOR inhibition constant Ki): 46.3 nM |
| C[C@@H](NC(=O)[C@@H](N)Cc1ccc(O)cc1)C(=O)N[C@@H](Cc1ccccc1)C(=O)N[C@@H](Cc1ccccc1)C(=O)NNC(=O)c1cc(C(F)(F)F)cc(C(F)(F)F)c1 [3b, H-Tyr-D-Ala-Phe-Phe-NH-NH-C(=O)-3,5-(CF3)2Ph] (H-Y[dA]FF-X4) | 391 ± 57.9 nM | > 1000 nM | > 1000 nM | no effect | DOR binding (in words) (δ opioid receptor (DOR); rat brain homogenate): do not exhibit any appreciable DOR binding |
| H-Y[dA]GW-NH2 | – | – | – | – | times weaker as a MOR binder than the [Phe4]-variant (MOR; versus H-Tyr-D-Ala-Gly-Phe-NH2): about 2 times |
| H-Tyr-[dA]-Trp-OH | – | – | – | – | IC50 (MOR): 977 nM |
| Tyr-Pro-Phe-Phe-NH2 [endomorphin-2] | – | – | – | – | IC50 (MOR): 3.9 nM |
| C[C@@H](NC(=O)[C@@H](N)Cc1ccc(O)cc1)C(=O)N[C@@H](Cc1c[nH]c2ccccc12)C(=O)NNC(=O)c1cc(C(F)(F)F)cc(C(F)(F)F)c1 [4b, H-Tyr-D-Ala-Trp-NH-NH-C(=O)-3,5-(CF3)2Ph] | – | – | – | no effect | IC50 (µ opioid receptor (MOR); rat brain homogenate, [3H]DAMGO 0.5 nM, read-out: MOR IC50 ± SEM): > 1000 nM; IC50 (δ opioid receptor (DOR); rat brain homogenate, [3H][Ile5,6]DELT II 0.5 nM, read-out: DOR IC50 ± SEM): > 1000 nM; IC50 ([1]; rat brain homogenate, [3H]Substance P 0.5 nM, read-out: NK1R IC50 ± SEM): > 1000 nM |
| C[C@@H](NC(=O)[C@@H](N)Cc1ccc(O)cc1)C(=O)NCC(=O)N[C@@H](Cc1c[nH]c2ccccc12)C(=O)NNC(=O)c1cc(C(F)(F)F)cc(C(F)(F)F)c1 [2b, H-Tyr-D-Ala-Gly-Trp-NH-NH-C(=O)-3,5-(CF3)2Ph] (H-Y[dA]GW-X4) | 93.5 ± 32.8 nM | 467 ± 36.9 nM | > 1000 nM | no effect | – |
| C[C@@H](O[C@H]1OCCN(Cc2n[nH]c(=O)[nH]2)[C@H]1c1ccc(F)cc1)c1cc(C(F)(F)F)cc(C(F)(F)F)c1 [aprepitant, reference compound] | – | – | – | – | number of MeW155 cells, % of the control value [2]: 78 ± 4 % of the control |
| H-Y[dA]FF-NH2 [TAPP] | – | – | – | – | IC50 (MOR; determined in the authors' laboratory): 5.1 nM |
| N[C@@H](Cc1ccc(O)cc1)C(=O)N1CCC[C@H]1C(=O)N[C@@H](Cc1ccccc1)C(=O)N[C@@H](Cc1ccccc1)C(=O)NN=Cc1cc(C(F)(F)F)cc(C(F)(F)F)c1 [5a, H-Tyr-Pro-Phe-Phe-NH-N=CH-3,5-(CF3)2Ph] | 28.5 ± 9.41 nM | > 1000 nM | > 1000 nM | significantly decrease the number of melanoma cells | DOR binding (in words) (δ opioid receptor (DOR); rat brain homogenate): do not exhibit any appreciable DOR binding; number of MeW155 cells, % of the control value [2]: ~ 2 % of the control |
| H-Tyr-D-Ala-Gly-Phe-NH-NH2 | – | – | – | – | IC50 (MOR): 4.7 nM |
| C[C@@H](NC(=O)[C@@H](N)Cc1ccc(O)cc1)C(=O)N[C@@H](Cc1c[nH]c2ccccc12)C(=O)NN=Cc1cc(C(F)(F)F)cc(C(F)(F)F)c1 [4a, H-Tyr-D-Ala-Trp-NH-N=CH-3,5-(CF3)2Ph] | 118 ± 40.2 nM | 621 ± 65.2 nM | > 1000 nM | significantly decrease the number of melanoma cells | number of MeW155 cells, % of the control value [2]: 65 ± 10 % of the control |
| H2N-Tyr-D-Ala-Gly-Phe-NH-NH←Phe←Gly←D-Ala←Tyr-NH2 [biphalin] | – | – | – | – | IC50 (MOR): 1.4 nM |
| C[C@@H](NC(=O)[C@@H](N)Cc1ccc(O)cc1)C(=O)NCC(=O)N[C@@H](Cc1ccccc1)C(=O)NNC(=O)NN=Cc1cc(C(F)(F)F)cc(C(F)(F)F)c1 [1d, H-Tyr-D-Ala-Gly-Phe-NH-NH-C(=O)-NH-N=CH-3,5-(CF3)2Ph] | 4.73 ± 0.02 nM | 44 ± 2.75 nM | > 1000 nM | no effect | area under the time course curve (AUC) of analgesic effect (male Wistar rats; 0.5 nmol/rat i.t.): 5732 ± 1161 units; antinociceptive effect, % of maximal possible effect (male Wistar rats; [3]): ~ 80 % MPE; antinociceptive effect, % of maximal possible effect (male Wistar rats; 2 nmol/rat i.t., 120 min after administration): 39 ± 10 % MPE; antinociceptive effect, % of maximal possible effect (male Wistar rats; 4 nmol/rat i.t., 15 min): 99 ± 7 % MPE; ED50 ± SEM (male Wistar rats): 0.32 ± 0.04 nmol/rat |
| C[C@@H](NC(=O)[C@@H](N)Cc1ccc(O)cc1)C(=O)NCC(=O)N[C@@H](Cc1ccccc1)C(=O)NNC(=O)Cc1cc(C(F)(F)F)cc(C(F)(F)F)c1 [1c, H-Tyr-D-Ala-Gly-Phe-NH-NH-C(=O)-CH2-3,5-(CF3)2Ph] | 5.25 ± 1.14 nM | 162 ± 8.75 nM | > 1000 nM | no effect | area under the time course curve (AUC) of analgesic effect (male Wistar rats; 0.5 nmol/rat i.t.): 1417 ± 730.1 units; antinociceptive effect, % of maximal possible effect (male Wistar rats; [3]): 31 ± 6 % MPE; antinociceptive effect, % of maximal possible effect (male Wistar rats; 1 nmol/rat i.t., 15 min): 85 ± 7 % MPE; ED50 ± SEM (male Wistar rats): 0.56 ± 0.04 nmol/rat |
| H-Tyr-D-Ala-Trp-Cyn | – | – | – | – | IC50 (MOR): 77.6 nM |
| C[C@@H](NC(=O)[C@@H](N)Cc1ccc(O)cc1)C(=O)NCC(=O)N[C@@H](Cc1c[nH]c2ccccc12)C(=O)NN=Cc1cc(C(F)(F)F)cc(C(F)(F)F)c1 [2a, H-Tyr-D-Ala-Gly-Trp-NH-N=CH-3,5-(CF3)2Ph] (H-Y[dA]GW-X3) | 112 ± 16.9 nM | 914 ± 43.5 nM | > 1000 nM | significantly decrease the number of melanoma cells | MOR IC50 ratio 2a and 1a (µ opioid receptor (MOR); ratio of IC50 of hydrazones 2a and 1a): about 10; number of MeW155 cells, % of the control value [2]: 20 ± 4 % of the control |
| C[C@@H](NC(=O)[C@@H](N)Cc1ccc(O)cc1)C(=O)NCC(=O)N[C@@H](Cc1ccccc1)C(=O)NNC(=O)c1cc(C(F)(F)F)cc(C(F)(F)F)c1 [1b, H-Tyr-D-Ala-Gly-Phe-NH-NH-C(=O)-3,5-(CF3)2Ph] | 111 ± 12.7 nM | 413 ± 105 nM | > 1000 nM | no effect | area under the time course curve (AUC) of analgesic effect (male Wistar rats; 0.5 nmol/rat i.t.): 3421 ± 673 units; antinociceptive effect, % of maximal possible effect (male Wistar rats; [3]): 65 ± 6 % MPE |
| H-Tyr-D-Ala-Gly-Phe-NH2 | – | – | – | – | Ki (MOR; read-out: MOR Ki): 2.8 nM; Ki (DOR): 300 nM |
| C[C@@H](NC(=O)[C@@H](N)Cc1ccc(O)cc1)C(=O)N[C@@H](Cc1ccccc1)C(=O)N[C@@H](Cc1ccccc1)C(=O)NN=Cc1cc(C(F)(F)F)cc(C(F)(F)F)c1 [3a, H-Tyr-D-Ala-Phe-Phe-NH-N=CH-3,5-(CF3)2Ph] (H-Y[dA]FF-X3) | 90.4 ± 9.91 nM | > 1000 nM | 723 ± 58.2 nM | significantly decrease the number of melanoma cells | DOR binding (in words) (δ opioid receptor (DOR); rat brain homogenate): do not exhibit any appreciable DOR binding; number of MeW155 cells, % of the control value [2]: ~ 2 % of the control |
| N[C@@H](Cc1ccc(O)cc1)C(=O)N1CCC[C@H]1C(=O)N[C@@H](Cc1ccccc1)C(=O)NN=Cc1cc(C(F)(F)F)cc(C(F)(F)F)c1 [6a, H-Tyr-Pro-Phe-NH-N=CH-3,5-(CF3)2Ph] | 113 ± 7 nM | > 1000 nM | > 1000 nM | significantly decrease the number of melanoma cells | DOR binding (in words) (δ opioid receptor (DOR); rat brain homogenate): do not exhibit any appreciable DOR binding; number of MeW155 cells, % of the control value [2]: 53 ± 3 % of the control |
